Where two headings read alike, the source gives them in different places.
Columns and labels:
BSA = biological target: T1, BSA (Bos taurus, UniProt P02769); set-up: Intact protein LC/MS covalent labelling, fragments in pools of five, 200 uM each, 4 °C; conditions: 24 h, 4 °C, pool of five; 200 µM; covalent
T1 construct: gene ALB

NNMT (hNNMT) = biological target: T2, NNMT (hNNMT) (Homo sapiens, UniProt P40261); set-up: Intact protein LC/MS covalent labelling, fragments in pools of five, 200 uM each, 4 °C; conditions: 24 h, 4 °C, pool of five; 200 µM; covalent
T2 construct: wild type, N-terminal His6 tag kept (no cleavage described), E. coli, construct 31248 Da
T2 sequence (P40261 1-264): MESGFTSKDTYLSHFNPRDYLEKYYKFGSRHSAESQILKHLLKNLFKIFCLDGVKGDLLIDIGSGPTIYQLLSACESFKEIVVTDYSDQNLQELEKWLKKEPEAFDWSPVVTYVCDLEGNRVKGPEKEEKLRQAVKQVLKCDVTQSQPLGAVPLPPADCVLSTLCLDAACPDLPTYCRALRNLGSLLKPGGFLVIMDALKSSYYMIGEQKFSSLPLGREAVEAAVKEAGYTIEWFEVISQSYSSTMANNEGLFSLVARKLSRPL

NUDT7 = biological target: T3, NUDT7 (Homo sapiens, UniProt P0C024); set-up: Intact protein LC/MS covalent labelling, fragments in pools of five, 200 uM each, 4 °C; conditions: 24 h, 4 °C, pool of five; 200 µM; covalent
T3 construct: residues 14-235, E. coli, pNIC28-Bsa4, N-terminal His6 tag removed by TEV, construct 26672 Da

OTUB2 (OTUB2A) = biological target: T4, OTUB2 (OTUB2A) (Homo sapiens, UniProt Q96DC9); set-up: Intact protein LC/MS covalent labelling, fragments in pools of five, 200 uM each, 4 °C; conditions: 24 h, 4 °C, pool of five; 200 µM; covalent
T4 construct: full length residues 1-234, E. coli BL21(DE3)-R3, His tag removed by TEV, construct 27312 Da
T4 sequence (Q96DC9 1-234): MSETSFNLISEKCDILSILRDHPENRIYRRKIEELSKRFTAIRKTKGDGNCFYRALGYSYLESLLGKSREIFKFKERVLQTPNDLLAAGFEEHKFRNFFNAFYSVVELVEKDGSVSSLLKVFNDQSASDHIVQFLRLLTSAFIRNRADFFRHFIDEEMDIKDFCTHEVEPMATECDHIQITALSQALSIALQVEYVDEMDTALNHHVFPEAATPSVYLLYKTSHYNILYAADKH

PCAF = biological target: T5, PCAF (Homo sapiens, UniProt Q92831); set-up: Intact protein LC/MS covalent labelling, fragments in pools of five, 200 uM each, 4 °C; conditions: 24 h, 4 °C, pool of five; 200 µM; covalent
T5 construct: gene KAT2B

in vitro [1] = assay: in vitro; set-up: species or system CCD841, HEK293; conditions: human, hb2 cells, read-out: HB-2 Cells Viability (%)
in vitro [2] = assay: in vitro; set-up: species or system HB2, HEK293; conditions: human, ccd841 cells
in vitro [3] = assay: in vitro; set-up: species or system HB2, CCD841; conditions: human, hek293 cells

T1 sequence (P02769 whole entry, the tested form may be a part): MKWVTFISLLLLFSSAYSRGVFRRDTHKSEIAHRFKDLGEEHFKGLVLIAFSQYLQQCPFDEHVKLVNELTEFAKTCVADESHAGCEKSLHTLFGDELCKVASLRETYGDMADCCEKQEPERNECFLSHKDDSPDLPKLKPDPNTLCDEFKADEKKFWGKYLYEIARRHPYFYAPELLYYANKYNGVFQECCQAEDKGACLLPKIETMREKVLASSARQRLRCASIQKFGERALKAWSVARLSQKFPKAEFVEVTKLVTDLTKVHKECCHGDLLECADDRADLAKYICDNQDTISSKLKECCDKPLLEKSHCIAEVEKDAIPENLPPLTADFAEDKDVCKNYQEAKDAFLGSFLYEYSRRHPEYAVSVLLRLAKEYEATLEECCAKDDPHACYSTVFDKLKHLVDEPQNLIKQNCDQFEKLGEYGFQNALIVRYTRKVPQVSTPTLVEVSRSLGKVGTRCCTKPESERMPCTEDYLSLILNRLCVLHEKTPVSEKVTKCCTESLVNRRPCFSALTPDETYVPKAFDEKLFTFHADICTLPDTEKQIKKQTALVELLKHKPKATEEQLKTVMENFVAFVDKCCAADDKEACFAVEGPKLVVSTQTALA
T5 sequence (Q92831 whole entry, the tested form may be a part): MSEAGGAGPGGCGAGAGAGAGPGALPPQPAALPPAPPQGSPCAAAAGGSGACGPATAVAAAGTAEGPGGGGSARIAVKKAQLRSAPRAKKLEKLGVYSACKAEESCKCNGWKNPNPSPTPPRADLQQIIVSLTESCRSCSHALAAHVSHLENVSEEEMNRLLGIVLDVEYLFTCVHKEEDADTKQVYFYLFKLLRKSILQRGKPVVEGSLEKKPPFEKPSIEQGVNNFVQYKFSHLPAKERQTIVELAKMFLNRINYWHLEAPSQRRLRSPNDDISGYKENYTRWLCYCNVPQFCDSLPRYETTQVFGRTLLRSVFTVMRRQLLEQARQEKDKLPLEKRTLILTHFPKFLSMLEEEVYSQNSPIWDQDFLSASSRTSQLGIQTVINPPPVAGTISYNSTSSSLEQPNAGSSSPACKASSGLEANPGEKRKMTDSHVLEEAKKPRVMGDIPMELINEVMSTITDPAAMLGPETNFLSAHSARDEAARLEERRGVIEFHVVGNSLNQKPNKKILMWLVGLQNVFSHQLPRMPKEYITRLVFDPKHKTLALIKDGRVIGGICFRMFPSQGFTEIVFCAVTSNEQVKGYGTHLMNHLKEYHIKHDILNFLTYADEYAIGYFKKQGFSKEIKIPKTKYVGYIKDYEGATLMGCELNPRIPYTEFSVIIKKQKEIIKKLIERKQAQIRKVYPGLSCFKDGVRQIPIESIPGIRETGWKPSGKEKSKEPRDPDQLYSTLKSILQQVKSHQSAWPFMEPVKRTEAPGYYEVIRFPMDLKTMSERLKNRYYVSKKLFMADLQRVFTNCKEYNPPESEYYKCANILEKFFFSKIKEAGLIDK
T3 sequence (P0C024 14-235): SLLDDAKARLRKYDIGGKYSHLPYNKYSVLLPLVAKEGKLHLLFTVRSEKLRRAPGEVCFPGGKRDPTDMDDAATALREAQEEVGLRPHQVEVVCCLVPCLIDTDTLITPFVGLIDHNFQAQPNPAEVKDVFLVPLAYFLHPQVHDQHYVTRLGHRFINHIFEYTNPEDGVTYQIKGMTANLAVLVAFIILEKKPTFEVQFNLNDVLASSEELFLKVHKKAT

Structure (SMILES)	BSA (BSA)	NNMT (NNMT (hNNMT))	NUDT7 (NUDT7)	OTUB2 (OTUB2 (OTUB2A))	PCAF (PCAF)	viability at 48 h, 10 µM (in vitro [1])	viability at 48 h, 10 µM (in vitro [2])	viability at 48 h, 10 µM (in vitro [3])
C=CC(=O)Nc1cc(CC(C)(C)C)nn1C [PCM-0102686]	0	0.12	0.15	0	0	102%	144%	75.3%
O=C(CCl)N1CCC(C(=O)N2CCCCCC2)CC1 [PCM-0102781]	0	0	0	0	0	90.6%	92.5%	63.8%
O=C(CCl)NC1CCCC(C(F)(F)F)C1 (stereo not shown) [PCM-0102862]	0	0.29	0	0.14	0	95%	106%	84%
O=C(CCl)NC(=O)c1ccccc1Br [PCM-0102464]	0	0	0	0	0	104%	113%	107%
O=C(CCl)N1CCN(C(=O)c2ccco2)CC1 [PCM-0102248]	0.06	0.1	0.09	0	0	78.1%	73.2%	35.6%
O=C(CCl)Nc1nnn[nH]1 [PCM-0102778]	0	0	0	0.3	0	102%	102%	120%
COC(=O)c1c(NC(=O)CCl)sc(C)c1C [PCM-0102322]	0	0.18	0.4	0	0	62.5%	80%	33.3%
O=C(CCl)N1CCN(S(=O)(=O)c2cccs2)CC1 [PCM-0102241]	0	0	0.12	0	0	8.9%	49.1%	8.9%
Cc1ccc(NC(=O)CCl)cc1C [PCM-0102339]	0	0.7	0.18	0.82	0	5.2%	34.9%	1.5%
C=CC(=O)N1CC=C(C(F)(F)F)CC1 [PCM-0102685]	0	0.17	0	0	0	103%	105%	98%
C=CC(=O)N1CCCC(Cc2nnc3ccccn23)C1 (stereo not shown) [PCM-0102909]	0	0	0	0	0	101%	87.9%	108%
COc1ccc(C(=O)NC(=O)CCl)cc1 [PCM-0102454]	0	0.36	0	0	0	97.1%	103%	96.7%
CN(CCC#N)C(=O)CCl [PCM-0102712]	0	0.32	0	0	0	89.4%	79.6%	80.3%
CC(C)(C)c1ccc(C(=O)NNC(=O)CCl)cc1 [PCM-0102355]	0	0	0	0.66	0	48.1%	44.3%	53.7%
C=CC(=O)N1CCC(C(=O)c2cccs2)CC1 [PCM-0102989]	0	0	0	0	0	97.7%	97.9%	102%
CN(CC(=O)N1CCOCC1)C(=O)CCl [PCM-0102743]	0	0	0	0	0	101%	99%	97.6%
COC(=O)c1cc(Cl)cc(Cl)c1NC(=O)CCl [PCM-0102912]	0.11	0.11	0.17	0	0	97%	90.6%	106%
COC(=O)c1cccc(NC(=O)CCl)c1 [PCM-0103048]	0	0.2	0	0.87	0	17.7%	34.7%	5.1%
CC(=O)c1ccccc1NC(=O)CCl [PCM-0102282]	0	0.19	0	0	0	102%	90.3%	87.2%
C=CC(=O)N1CCC(C(=O)O)(c2ccccc2)CC1 [PCM-0102459]	0	0	0	0	0	103%	98.8%	110%

From paper PMC6556873, “Rapid Covalent-Probe Discovery by Electrophile-Fragment Screening” (Journal of the American Chemical Society, 2019)
